This note sets out measurements from ChEMBL document CHEMBL1138848, “Tetrahydrobiopterin binding to aromatic amino acid hydroxylases. Ligand recognition and specificity” (J Med Chem, 2004).

The target in test [1] is T1, Phenylalanine-4-hydroxylase (Homo sapiens, UniProt P00439).
T1 sequence (P00439 whole entry): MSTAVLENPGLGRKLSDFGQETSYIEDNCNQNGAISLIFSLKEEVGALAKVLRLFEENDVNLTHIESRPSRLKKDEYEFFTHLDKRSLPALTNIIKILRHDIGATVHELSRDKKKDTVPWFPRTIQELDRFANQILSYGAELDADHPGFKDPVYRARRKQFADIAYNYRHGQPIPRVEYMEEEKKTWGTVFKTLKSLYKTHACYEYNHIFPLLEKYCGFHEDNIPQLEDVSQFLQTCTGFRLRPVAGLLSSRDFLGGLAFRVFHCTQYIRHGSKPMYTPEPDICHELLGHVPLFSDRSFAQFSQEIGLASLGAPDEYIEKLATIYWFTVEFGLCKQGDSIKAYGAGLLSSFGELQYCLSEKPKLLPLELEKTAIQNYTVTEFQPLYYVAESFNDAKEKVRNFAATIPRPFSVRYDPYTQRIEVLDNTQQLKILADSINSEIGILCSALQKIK
Briefly: Binding affinity for human phenylalanine hydroxylase.

The target in test [2] is T1, Phenylalanine-4-hydroxylase. Briefly: Inhibitory concentration against human phenylalanine hydroxylase.

The structures appear in SMILES notation.

As a reminder, the Ki is the dissociation constant of the complex between target and ligand, obtained from inhibition or displacement. A word on the IC50: it is the concentration that gives 50% inhibition. Take `CC(O)C(O)C1CNc2c(nc(N)[nH]c2=O)N1` (configuration not stated): the affinity in test [1], expressed as Ki, was 7 µM. In test [2], the IC50 turned out to be 1 µM.
